{
  "source": "patent US20050002859A1",
  "about": "“COX-2-targeted imaging agents” (Vanderbilt University, priority 2003, published 2005)",
  "key": {"COX-2": {"target": "T1, COX-2 (Homo sapiens, UniProt P35354)", "T1 sequence (P35354 18-604)": "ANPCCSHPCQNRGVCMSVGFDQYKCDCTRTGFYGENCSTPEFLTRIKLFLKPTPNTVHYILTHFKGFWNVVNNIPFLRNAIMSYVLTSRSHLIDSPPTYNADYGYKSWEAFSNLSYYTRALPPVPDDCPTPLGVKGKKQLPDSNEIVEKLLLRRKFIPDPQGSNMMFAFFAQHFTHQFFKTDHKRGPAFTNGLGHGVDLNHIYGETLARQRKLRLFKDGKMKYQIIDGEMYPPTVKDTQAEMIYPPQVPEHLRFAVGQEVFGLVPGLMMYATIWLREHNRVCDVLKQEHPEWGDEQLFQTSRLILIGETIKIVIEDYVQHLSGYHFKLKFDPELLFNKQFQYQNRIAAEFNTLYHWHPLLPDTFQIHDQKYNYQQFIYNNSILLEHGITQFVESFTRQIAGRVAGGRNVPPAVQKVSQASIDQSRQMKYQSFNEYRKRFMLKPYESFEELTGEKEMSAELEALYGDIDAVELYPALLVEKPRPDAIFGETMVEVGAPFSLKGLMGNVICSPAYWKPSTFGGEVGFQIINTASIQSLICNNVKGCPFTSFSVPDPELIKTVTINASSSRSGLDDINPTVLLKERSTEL", "test": "Inhibition of purified COX-2 by NSAID derivatives (species not stated)", "type": "biochemical", "details": "purified enzyme", "procedure": "(§1) While the TLC assay described above provides considerable information, it is labor-intensive for screening large numbers of candidate NSAID derivatives. Accordingly, as an alternative, a simplified assay can be used. Incubation conditions can be essentially as described above, except all candidate derivatives are first screened at a concentration of 1 mM with a preincubation time of 30 minutes. The substrate need not be radiolabeled, and the reaction can be stopped by the addition of 2 μL of formic acid. Product formation can be quantitated by enzyme-linked immunosorbent assay (ELISA) using commercially available kits. […] Other in vitro assay methods for screening NSAID derivatives for activity (e.g., selectivity for the COX-2 enzyme) can also be used by the skilled artisan."}, "[1]": {"target": "T2, COX-1 activity in uninduced macrophages (Mus musculus, UniProt P22437)", "T2 construct": "endogenous in cells", "T2 sequence (P22437 27-602)": "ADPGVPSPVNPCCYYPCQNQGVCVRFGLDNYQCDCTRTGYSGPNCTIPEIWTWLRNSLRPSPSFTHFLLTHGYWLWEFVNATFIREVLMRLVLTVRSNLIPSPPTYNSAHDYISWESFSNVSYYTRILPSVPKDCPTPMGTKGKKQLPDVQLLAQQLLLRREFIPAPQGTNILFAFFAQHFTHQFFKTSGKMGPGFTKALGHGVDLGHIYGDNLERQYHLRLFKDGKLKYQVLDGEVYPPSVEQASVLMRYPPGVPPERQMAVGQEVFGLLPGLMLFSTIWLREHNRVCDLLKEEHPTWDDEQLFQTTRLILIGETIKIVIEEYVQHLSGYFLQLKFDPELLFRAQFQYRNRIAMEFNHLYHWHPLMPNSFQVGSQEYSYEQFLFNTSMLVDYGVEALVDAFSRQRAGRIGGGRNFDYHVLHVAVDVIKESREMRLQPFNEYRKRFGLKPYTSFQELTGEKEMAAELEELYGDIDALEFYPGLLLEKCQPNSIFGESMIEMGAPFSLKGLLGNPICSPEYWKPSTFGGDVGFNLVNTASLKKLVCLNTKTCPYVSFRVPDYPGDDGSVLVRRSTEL", "test": "Inhibition of COX-1 activity in uninduced macrophages", "type": "cell-based, murine"}, "[2]": {"target": "T3, COX-2 activity in RAW 264.7 murine macrophage cell line (Mus musculus, UniProt Q05769)", "T3 construct": "The macrophages were exposed to lipopolysaccharide and γ-interferon to induce COX-2; endogenous in cells", "T3 sequence (Q05769 18-604)": "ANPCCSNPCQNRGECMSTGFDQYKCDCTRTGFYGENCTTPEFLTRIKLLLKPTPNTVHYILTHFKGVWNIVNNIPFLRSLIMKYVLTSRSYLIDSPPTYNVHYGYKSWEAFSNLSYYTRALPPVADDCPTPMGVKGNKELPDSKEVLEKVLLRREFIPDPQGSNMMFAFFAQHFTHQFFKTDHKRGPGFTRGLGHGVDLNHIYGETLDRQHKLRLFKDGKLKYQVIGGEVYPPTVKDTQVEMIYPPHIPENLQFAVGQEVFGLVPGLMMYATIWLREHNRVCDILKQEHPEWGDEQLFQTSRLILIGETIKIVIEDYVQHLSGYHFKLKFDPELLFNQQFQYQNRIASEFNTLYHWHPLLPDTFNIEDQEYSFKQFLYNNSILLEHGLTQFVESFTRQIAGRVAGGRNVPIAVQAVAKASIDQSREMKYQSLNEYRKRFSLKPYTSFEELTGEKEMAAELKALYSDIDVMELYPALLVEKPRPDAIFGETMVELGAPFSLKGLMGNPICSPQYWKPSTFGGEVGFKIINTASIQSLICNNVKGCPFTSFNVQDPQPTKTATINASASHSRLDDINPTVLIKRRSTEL", "test": "Inhibition of COX-2 activity (PGD2 synthesis) in activated RAW264.7 macrophages", "type": "cell-based", "details": "read-out: IC50 for inhibition of COX-2 activity in RAW 264.7 macrophages", "description": "Thus, NSAID derivatives that are identified as potentially useful in the methods described herein can be further tested using, for example, the RAW264.7 murine macrophage cell line. These cells are readily available (for example, from the American Type Culture Collection, Manassas, Va., United States of America) and are easily cultured in large numbers. They normally express low levels of COX-1 and very low to undetectable levels of COX-2. Upon exposure to bacterial lipopolysaccharide (LPS), however, COX-2 levels increase dramatically over the ensuing 24 hour period, and the cells produce PGD2 and PGE2 from endogenous arachidonic acid stores (generally, ˜1 nmol/10^7 cells total PG formation). After LPS exposure, the addition of exogenous arachidonic acid results in the formation of additional PGD2 and PGE2 as a result of metabolism by the newly synthesized COX-2.\nThis system provides a number of approaches for testing the inhibitory potency of COX-2-selective ligands (e.g., inhibitors). In general, following LPS activation, cells can be treated for 30 minutes with the desired concentrations of candidate derivative(s) in DMSO. ^14C-arachidonic acid can be added, and the cells can be incubated for 15 minutes at 37° C. Product formation can be assessed following extraction and TLC separation of the culture medium. Alternatively, the effects of candidate derivatives on PG synthesis from endogenous arachidonic acid can be assessed by incubating cells with desired concentrations of candidate derivatives 30 minutes prior to LPS exposure. Following a 24 hour incubation, medium can be collected and extracted, and the amount of PGD2 and/or PGE2 can be assayed by gas chromatography-mass spectrometry, liquid chromatography-mass spectrometry, or ELISA.\nInhibition of COX-2 Activity in Activated RAW264.7. Protocols for COX-2 inhibition in RAW264.7 cells have been previously described (Kalgutkar et al., 1998b). Briefly, cells (6.2×10^6 cells/T25 flask) were activated with lipopolysaccharide (1 μg/mL) and γ-interferon (10 U/mL) in serum-free DMEM for 7 hours and then treated with inhibitor (0-2 μM) for 30 minutes at 37° C. Exogenous arachidonate metabolism was determined by adding [1-^14C]-arachidonate acid (20 μM) for 15 minutes at 37° C. IC50 values are the average of two independent determinations.\nThe macrophages were exposed to lipopolysaccharide and γ-interferon to induce COX-2 and then treated with several concentrations of Compound 355."}, "[3]": {"system": "rat carageenan footpad edema", "test": "Rat carageenan footpad edema model", "type": "in vivo", "procedure": "The first is the rat carageenan footpad model. Maximal edema is obtained in this model 3 hours after carageenan injection."}, "COX-1": {"target": "T4, COX-1 (Ovis aries, UniProt P05979)", "T4 sequence (P05979 25-600)": "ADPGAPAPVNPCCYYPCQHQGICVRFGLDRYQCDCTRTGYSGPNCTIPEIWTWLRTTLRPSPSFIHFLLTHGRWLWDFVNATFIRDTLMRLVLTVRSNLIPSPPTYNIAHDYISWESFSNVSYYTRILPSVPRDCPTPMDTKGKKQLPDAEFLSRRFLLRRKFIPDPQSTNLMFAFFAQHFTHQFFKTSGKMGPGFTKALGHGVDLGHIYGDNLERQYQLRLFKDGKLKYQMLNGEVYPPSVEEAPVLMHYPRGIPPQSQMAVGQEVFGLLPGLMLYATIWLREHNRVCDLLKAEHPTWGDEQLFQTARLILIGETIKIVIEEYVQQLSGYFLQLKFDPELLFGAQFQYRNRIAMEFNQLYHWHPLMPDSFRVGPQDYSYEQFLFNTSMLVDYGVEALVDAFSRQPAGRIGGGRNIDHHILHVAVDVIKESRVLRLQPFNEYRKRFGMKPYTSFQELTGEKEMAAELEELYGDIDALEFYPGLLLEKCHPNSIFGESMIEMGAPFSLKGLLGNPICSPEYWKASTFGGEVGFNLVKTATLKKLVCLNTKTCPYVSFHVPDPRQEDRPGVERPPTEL", "test": "Inhibition of COX-1 by NSAID derivatives (species not stated)", "type": "biochemical", "procedure": "as §1"}, "[4]": {"test": "Metabolism by rat liver microsomes", "type": "in vitro ADME", "details": "0.125 mg/mL protein", "procedure": "Preliminary metabolic studies were conducted using isolated liver microsome preparations."}, "[5]": {"details": "rat, in vivo"}},
  "data": [
    {"smiles": "CCCCC#CCSc1ccccc1OC(=O)CF", "note": "[F-APHS]", "values": [
      {"measurement": "IC50", "setting": "COX-2", "result": 4, "unit": "µM"},
      {"measurement": "concentration up to which COX-1 activity is not inhibited", "setting": "[1]", "result": "> 32", "unit": "µM"},
      {"measurement": "IC50", "setting": "[2]", "result": 2.8, "unit": "µM"}
    ]},
    {"smiles": "COc1ccc2c(c1)c(CC(=O)Nc1ccc(F)cc1)c(C)n2C(=O)c1ccc(Cl)cc1", "note": "[Compound 18, p-fluorophenyl derivative of indomethacin amide]", "values": [
      {"measurement": "anti-inflammatory activity in rat footpad edema assay", "setting": "[3]; following oral installation", "result": "anti-inflammatory activity"},
      {"measurement": "ED50", "setting": "[3]; rat carageenan footpad model (Example 14)", "result": 0.25, "unit": "mg/kg"},
      {"measurement": "IC50", "setting": "COX-1", "result": "> 66", "unit": "µM"},
      {"measurement": "half-life, rat liver microsomes", "setting": "[4]", "result": 1.67, "unit": "h"},
      {"measurement": "clearance half-life", "setting": "[5]", "result": 4, "unit": "h"},
      {"measurement": "half-life in plasma", "setting": "[5]; po", "result": 4, "unit": "h"},
      {"measurement": "oral bioavailability", "setting": "[5]; po", "result": 30, "unit": "%"}
    ]}
  ]
}
